# Laboratory results from ChEMBL document CHEMBL2074540, “Induction of multidrug resistance protein 3 (mrp3) in vivo is independent of constitutive androstane receptor” (Drug Metab Dispos, 2003).
# Legend:
# [1] = target: ATP-binding cassette sub-family C member 3 (Rattus norvegicus, UniProt O88563); test: TP_TRANSPORTER: Branched DNA Assay in vivo, liver of WKY rat; assay type: functional, organism-based
# [2] = target: ATP-binding cassette sub-family C member 3 (Mus musculus, UniProt B2RX12); test: TP_TRANSPORTER: Branched DNA Assay in vivo, liver of mouse; assay type: functional, organism-based
# Sequence of ATP-binding cassette sub-family C member 3 (Mus musculus, UniProt B2RX12) (B2RX12 whole entry): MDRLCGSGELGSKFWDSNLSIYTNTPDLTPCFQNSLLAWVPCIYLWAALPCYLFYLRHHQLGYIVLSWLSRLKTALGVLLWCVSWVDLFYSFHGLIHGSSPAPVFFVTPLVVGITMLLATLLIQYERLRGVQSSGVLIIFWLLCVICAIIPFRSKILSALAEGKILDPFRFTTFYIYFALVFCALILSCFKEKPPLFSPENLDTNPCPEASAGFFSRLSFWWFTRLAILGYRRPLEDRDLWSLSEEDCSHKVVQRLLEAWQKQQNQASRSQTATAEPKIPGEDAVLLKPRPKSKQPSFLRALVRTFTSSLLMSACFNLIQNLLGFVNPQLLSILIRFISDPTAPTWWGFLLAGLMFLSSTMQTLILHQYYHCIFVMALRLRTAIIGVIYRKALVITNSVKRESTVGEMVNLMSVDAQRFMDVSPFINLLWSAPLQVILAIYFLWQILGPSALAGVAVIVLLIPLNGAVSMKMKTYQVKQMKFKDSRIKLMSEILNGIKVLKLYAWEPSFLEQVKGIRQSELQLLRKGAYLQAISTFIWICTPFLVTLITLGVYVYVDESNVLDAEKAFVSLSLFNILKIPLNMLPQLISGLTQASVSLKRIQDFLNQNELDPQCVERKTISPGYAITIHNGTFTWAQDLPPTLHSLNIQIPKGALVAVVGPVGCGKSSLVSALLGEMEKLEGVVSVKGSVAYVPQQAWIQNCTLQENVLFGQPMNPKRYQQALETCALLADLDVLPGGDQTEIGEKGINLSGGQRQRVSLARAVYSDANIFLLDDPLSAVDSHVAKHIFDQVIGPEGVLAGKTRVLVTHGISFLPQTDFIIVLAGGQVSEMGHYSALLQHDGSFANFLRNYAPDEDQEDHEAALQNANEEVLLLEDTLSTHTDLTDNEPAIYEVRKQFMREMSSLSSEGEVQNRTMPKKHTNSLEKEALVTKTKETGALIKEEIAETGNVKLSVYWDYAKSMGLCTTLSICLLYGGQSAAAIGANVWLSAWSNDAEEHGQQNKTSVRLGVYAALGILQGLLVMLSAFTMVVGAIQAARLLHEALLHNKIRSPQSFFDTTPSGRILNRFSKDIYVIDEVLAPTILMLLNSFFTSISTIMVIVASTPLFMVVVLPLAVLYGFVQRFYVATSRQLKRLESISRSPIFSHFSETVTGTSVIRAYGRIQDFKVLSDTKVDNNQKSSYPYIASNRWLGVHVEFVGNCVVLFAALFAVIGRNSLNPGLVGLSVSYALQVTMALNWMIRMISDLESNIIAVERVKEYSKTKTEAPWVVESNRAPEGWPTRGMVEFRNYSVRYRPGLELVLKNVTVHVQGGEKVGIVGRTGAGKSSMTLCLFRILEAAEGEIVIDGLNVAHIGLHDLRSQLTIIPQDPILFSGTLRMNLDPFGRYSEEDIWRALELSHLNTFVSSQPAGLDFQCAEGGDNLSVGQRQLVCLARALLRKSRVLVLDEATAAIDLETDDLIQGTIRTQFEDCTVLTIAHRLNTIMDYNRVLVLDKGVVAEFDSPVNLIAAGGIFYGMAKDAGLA
# Sequence of ATP-binding cassette sub-family C member 3 (Rattus norvegicus, UniProt O88563) (O88563 whole entry): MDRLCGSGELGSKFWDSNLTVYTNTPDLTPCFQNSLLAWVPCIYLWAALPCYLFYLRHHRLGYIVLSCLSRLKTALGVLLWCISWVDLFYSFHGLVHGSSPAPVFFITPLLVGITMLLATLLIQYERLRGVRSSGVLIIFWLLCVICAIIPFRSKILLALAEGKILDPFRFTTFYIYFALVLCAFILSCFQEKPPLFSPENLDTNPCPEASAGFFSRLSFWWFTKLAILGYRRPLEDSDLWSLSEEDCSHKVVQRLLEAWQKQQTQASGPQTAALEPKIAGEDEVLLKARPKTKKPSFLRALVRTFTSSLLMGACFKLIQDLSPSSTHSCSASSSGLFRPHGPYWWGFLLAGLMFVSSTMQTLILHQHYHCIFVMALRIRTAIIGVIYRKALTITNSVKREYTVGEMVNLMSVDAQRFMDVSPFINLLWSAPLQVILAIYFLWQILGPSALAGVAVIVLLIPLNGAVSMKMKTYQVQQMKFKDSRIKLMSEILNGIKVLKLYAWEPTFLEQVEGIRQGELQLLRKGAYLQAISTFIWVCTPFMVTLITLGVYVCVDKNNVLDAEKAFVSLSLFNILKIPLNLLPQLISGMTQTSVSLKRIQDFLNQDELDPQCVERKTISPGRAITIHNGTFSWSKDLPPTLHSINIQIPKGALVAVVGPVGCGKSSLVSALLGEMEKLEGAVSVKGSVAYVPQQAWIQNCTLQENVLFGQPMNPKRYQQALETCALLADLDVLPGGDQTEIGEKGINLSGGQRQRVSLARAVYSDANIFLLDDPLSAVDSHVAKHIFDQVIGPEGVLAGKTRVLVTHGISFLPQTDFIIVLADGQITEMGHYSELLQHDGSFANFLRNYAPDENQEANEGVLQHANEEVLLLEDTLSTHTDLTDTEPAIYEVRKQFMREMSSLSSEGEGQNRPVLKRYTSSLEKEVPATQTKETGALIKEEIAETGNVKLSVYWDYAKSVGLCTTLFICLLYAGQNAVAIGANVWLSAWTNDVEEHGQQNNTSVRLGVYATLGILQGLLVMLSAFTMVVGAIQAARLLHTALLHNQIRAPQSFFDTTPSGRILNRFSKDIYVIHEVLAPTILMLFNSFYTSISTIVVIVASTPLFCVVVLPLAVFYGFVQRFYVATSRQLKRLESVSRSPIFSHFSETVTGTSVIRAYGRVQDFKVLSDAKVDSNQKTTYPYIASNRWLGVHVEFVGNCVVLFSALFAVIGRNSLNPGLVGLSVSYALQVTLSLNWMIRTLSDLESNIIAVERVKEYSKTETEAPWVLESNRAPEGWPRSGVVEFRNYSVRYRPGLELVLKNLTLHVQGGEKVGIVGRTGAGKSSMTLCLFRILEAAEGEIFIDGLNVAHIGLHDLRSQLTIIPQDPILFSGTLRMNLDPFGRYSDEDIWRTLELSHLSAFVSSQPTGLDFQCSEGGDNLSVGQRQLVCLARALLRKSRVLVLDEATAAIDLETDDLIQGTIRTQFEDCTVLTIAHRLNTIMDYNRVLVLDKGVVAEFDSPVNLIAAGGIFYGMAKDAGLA
SMILES,Activity [1],Activity [2]
c1ccc([C@H]2O[C@@H]2c2ccccc2)cc1 (relative stereo),inducer [],inducer []
Cc1c(-c2cnccn2)ssc1=S [OLTIPRAZ],inducer [],inducer []
C=CCSCC=C [DIALLYL SULFIDE],inducer [],inducer []
CCC1(c2ccccc2)C(=O)NC(=O)NC1=O [PHENOBARBITAL],inducer [],inducer []
